Read-outs that look alike come from different tables or passages of the source.
Columns and labels:
wild-type HSV-1 strain F = test: Anti-HSV-1 plaque reduction assay (PRA) on supernatants of infected U2OS cells; type: cell-based; settings: for IC50: MOI 1, supernatants at 24 h.p.i., plaque reduction assay, read-out: IC50 (concentration able to perform 50% inhibition of HSV-1 production)
Method: (§1) Quindoline-derived compounds were first screened for their anti-herpetic activity. Increasing concentrations of compounds (from 25 to 400 nM) were added to U2OS cells infected with wild-type HSV-1 strain F at a MOI of 1. Supernatants were collected at 24 hours post infection (h.p.i.) and the reduction of viral particles production was determined by plaque reduction assay (PRA) (see, Artusi S., et al., Antiviral Res. 2015; 118:123-31; Callegaro S., et al., Sci. Rep. 2017; 7: 2341). Antiviral activities were determined as the concentration of compounds able to perform 50% inhibition of HSV-1 production (IC50). Cytotoxicity effects were evaluated in parallel by MTT assay and reported as the concentration of compounds able to kill 50% of the cells (CC50). The selectivity index (SI) was calculated as the ratio of CC50 to IC50.

[1] = Cytotoxicity by MTT assay; type: cell-based, Human; settings: human, U2OS cells (osteosarcoma cell line), read-out: CC50 (concentration able to kill 50% of the cells)
Method: as §1, with “Increasing concentrations of compounds (from 25 to 400 nM) were added to U2OS cells infected with wild-type HSV-1 strain F at a MOI of 1.” left out

HSV-1 = test: Time of addition (TOA) assay in HSV-1-infected U2OS cells; type: cell-based; settings: non-toxic concentration, added every 2 hours up to 10 h.p.i., supernatants at 30 h.p.i. titrated by PRA
Method: To assess the main and temporally last viral step targeted by the most promising compound, GSA-0932, a time of addition (TOA) assay was performed (see, FIG. 2) (see, Artusi S., et al., Antiviral Res. 2015; 118:123-31; Callegaro S., et al., Sci. Rep. 2017; 7: 2341; Daelemans D., et al., Nat. Protoc. 2011; 6(6):925-33). This experiment permits determination of how long the addition of a compound can be postponed before it loses its antiviral activity. Since the HSV-1 replication cycle proceeds in a well-established chronological order, it is possible to investigate the last viral process targeted by a compound comparing its action to that of a reference drug in the time frame of replication events. The well characterized anti-HSV drug Acyclovir (ACV) was considered as reference (see, Artusi S., et al., Antiviral Res. 2015; 118:123-31; Callegaro S., et al., Sci. Rep. 2017; 7: 2341). HSV-1-infected U2OS cells were treated with a non-toxic concentration of GSA-0932 at different times post-infection (corresponding to different viral cycle steps): every 2 hours up to 10 h.p.i. Supernatants were collected at 30 h.p.i. and then titrated by PRA.

[2] = system: HSV-1 un3 G-quadruplex folding sequence; test: Circular dichroism (CD) melting of G-quadruplex, un3; type: binding
Method: (§2) Circular dichroism (CD) was conducted to evaluate the binding and stabilizing activity of GSA-0932 to HSV-1 G-quadruplex structures (G4s). Three sequences were considered: two sequences forming a four-stacked-G-quartet structure (un2 and gp054a) and one forming a three-G-quartet G4 (un3) (see, Artusi S., et al., Antiviral Res. 2015; 118:123-31). HSV-1 G4s were analyzed at a final concentration of 4 μM in the presence of the physiological K^+ concentration (100 mM) or in the presence of lower K^+ concentration (2.5 mM) in order to better appreciate the effect of the compound in the case of extremely stable G4 structures (e.g. un2 sequence). Oligonucleotides were also analyzed in the absence or presence of 4-folds excess of GSA-0932.

[3] = system: HSV-1 un2 G-quadruplex folding sequence; test: Circular dichroism (CD) melting of G-quadruplex, un2; type: binding; settings: un2 4 μM + 16 μM GSA-0932, K+ 2.5 mM
Method: as §2

[4] = system: HSV-1 gp054a G-quadruplex folding sequence; test: Circular dichroism (CD) melting of G-quadruplex, gp054a; type: binding; settings: for Tm, first value: first of two printed Tm; for Tm, second value: second of two printed Tm
Method: as §2

[5] = system: un2, un3 and gp054a G-quadruplex forming templates; test: Taq polymerase stop assay, G-quadruplex templates; type: biochemical, HSV-1; settings: 2-8 μM compound; un3 at 50 mM K+, un2 and gp054a at 0.5 mM K+
Method: (§3) FIG. 3: Taq polymerase stop assay. A) Image of a typical Taq polymerase stop assay. The un2, un3, gp054a template were amplified by Taq polymerase in the absence (lanes 5-9-13) and in the presence of K^+, combined with increasing amounts (2-8 μM) of GSA-0932 (lanes 7-8, 11-12, 15-16) or same amount of DMSO as that in the ligand (lanes 6-10-14). Un3 was analyzed at 50 mM of K^+, while the other sequences were investigated at 0.5 mM of K^+. A template (non-G4 ctrl) unable to fold into G4 was also used as control (lanes 1-4). P stands for unreacted labeled primer, FL stands for full length product. G4-specific Taq polymerase stop sites are highlighted by vertical bars. Quantification of stop bands corresponding to G4 and of the full length amplification product (FL) is shown.
To confirm the increased stability of the viral G-quadruplexes in the presence of GSA-0932, a Taq polymerase stop assay was next set up (FIG. 3). Extended un2, un3 and gp054a forming sequences were used, containing additional flanking bases at the 3′-end: a primer annealing sequence and a 5-T linker region to separate the annealing sequence from the first G of the G-tract.
(§4) Un3 was analyzed at 50 mM of K^+, while the FIG. 3 other sequences were investigated at 0.5 mM of K^+ due to their higher stability.

[6] = system: control DNA template unable to fold into G-quadruplex; test: Taq polymerase stop assay, non-G4 control template; type: biochemical; settings: non-G4 ctrl template
Method: as §3, §4

[7] = system: un3 G-quadruplex-folded oligonucleotide; test: Competition ESI-MS binding, un3; parameters: species or system HSV-1; settings: competing G4s un3/hTel, oligonucleotides 4 μM, DNA:compound 1:1.5, overnight 4° C.
Method: (§5) Competition electrospray ionization mass spectrometry (ESI-MS) experiments were performed in order to check the binding selectivity of GSA-0932 toward different G-quadruplex forming sequences (see, Callegaro S., et al., Sci. Rep. 2017; 7: 2341; Yuan G., et al., Mass Spectrom. Rev. 2011, 30, 1121-114210.1002/mas.20315). The viral un3, un2 and gp054a G4s were analyzed against the selected competitor hTel, the G-quadruplex-forming sequence of the human telomeric repeat, the most abundant cellular G-quadruplex. The oligonucleotides were diluted to final concentration of 4 μM and incubated with the compound at ratio DNA:compound 1:1.5 overnight at 4° C. Samples were analyzed by a Xevo G2-XS QT of mass spectrometer (Waters, Manchester, UK). Binding affinities were calculated for each experiment using the peak intensity for each species measured by MassLynx V4.1.

[8] = system: un2 G-quadruplex-folded oligonucleotide; test: Competition ESI-MS binding, un2; parameters: species or system HSV-1; settings: competing G4s un2/hTel, oligonucleotides 4 μM, DNA:compound 1:1.5, overnight 4° C.
Method: as §5

[9] = system: gp054a G-quadruplex-folded oligonucleotide; test: Competition ESI-MS binding, gp054a; parameters: species or system HSV-1; settings: competing G4s gp054a/hTel, oligonucleotides 4 μM, DNA:compound 1:1.5, overnight 4° C.
Method: as §5

[10] = system: hTel, the G-quadruplex-forming sequence of the human telomeric repeat; test: Competition ESI-MS binding, hTel; settings: oligonucleotides 4 μM, DNA:compound 1:1.5, overnight 4° C.
Method: as §5

[11] = system: U2OS (Human osteosarcoma cell line); test: Cytotoxicity by MTT assay; type: cell-based; settings: U2OS cells, read-out: CC50 (concentration able to kill 50% of the cells)
Method: as §1, with “Increasing concentrations of compounds (from 25 to 400 nM) were added to U2OS cells infected with wild-type HSV-1 strain F at a MOI of 1.” left out

[12] = Human alphaherpesvirus 1, HSV-1 strain F
[13] = un3 4 μM + 16 μM GSA-0932, K+ 2.5 mM
[14] = un3 4 μM + 16 μM GSA-0932, K+ 100 mM
[15] = gp054a 4 μM + 16 μM GSA-0932, K+ 2.5 mM
[16] = gp054a 4 μM + 16 μM GSA-0932, K+ 100 mM

## CN(C)CCCN1CCCn2c3ccccc3c3nc4ccccc4c1c32 [GSA-1504]
wild-type HSV-1 strain F
  SI (selectivity index, ratio of CC50 to IC50): 20.42
wild-type HSV-1 strain F; [12]
  IC50: 225 nM
[1]
  CC50: 4600 nM

## OC1CCN(CCN2CCCn3c4ccccc4c4nc5ccccc5c2c43)CC1 [GSA-0932]
wild-type HSV-1 strain F
  SI (selectivity index, ratio of CC50 to IC50): 112.9
wild-type HSV-1 strain F; [12]
  IC50: 132 nM
[1]
  CC50: 14900 nM
HSV-1
  time of addition up to which infection was kept controlled: up to 6 h.p.i.
[2]; [13]
  Tm: 56.4 ± 1.2 °C
  ΔTm: 18.8 ± 0.8 °C
[2]; [14]
  Tm: 66.4 °C
  ΔTm: 1.4 °C
[3]
  Tm: >90 °C
  ΔTm: >7.5 °C
[4]; [15]
  ΔTm: 15.6 °C
  Tm, first value: 74.5 °C
  Tm, second value: > 90 °C
[4]; [16]
  Tm, first value: 74.7 °C
  Tm, second value: > 90 °C
[4]; gp054a 4 μM + 16 μM GSA-0932, K+ 100 mM, first of two printed ΔTm
  ΔTm, first value: 17.4 °C
[4]; gp054a 4 μM + 16 μM GSA-0932, K+ 100 mM, second of two printed ΔTm
  ΔTm, second value: > 7.5 °C
[5]
  intensity of the G4 stop bands: increased in a concentration dependent manner
[6]
  effect on control DNA template: no effect
[7]
  Relative binding affinity, un3: 50.3 ± 1.2
[8]
  Relative binding affinity, un2: 38.9 ± 1.7
[9]
  Relative binding affinity, gp054a: 57.3 ± 0.4
[10]; competing G4s un2/hTel
  Relative binding affinity, Cell G4 (hTel): 11.1 ± 0.4
[10]; competing G4s un3/hTel
  Relative binding affinity, Cell G4 (hTel): 13.8 ± 0.2

## CN1CCN(CCCN2CCCn3c4ccccc4c4nc5ccccc5c2c43)CC1 [GSA-0903]
wild-type HSV-1 strain F
  SI (selectivity index, ratio of CC50 to IC50): <31.15
wild-type HSV-1 strain F; [12]
  IC50: > 200 nM
[1]
  CC50: 6230 nM

## Cl.c1ccc2c3c4c(nc2c1)c1ccccc1n4CCCN3CCCN1CCCCCC1 [GSA-0920]
wild-type HSV-1 strain F
  SI (selectivity index, ratio of CC50 to IC50): <9.05
wild-type HSV-1 strain F; [12]
  IC50: > 400 nM
[1]
  CC50: 3620 nM

## Cc1c2ccncc2c(C)c2c1[nH]c1ccc(OCCN(C)C)cc12 [GQC-05, reference compound]
wild-type HSV-1 strain F; HSV-1 strain F
  IC50: 311 nM
[11]
  CC50: 1650 nM

## OC1CCC(CCN2CCCn3c4ccccc4c4nc5ccccc5c2c43)CC1 (centres unmarked) [GSA-1512]
wild-type HSV-1 strain F
  SI (selectivity index, ratio of CC50 to IC50): 70.78
wild-type HSV-1 strain F; [12]
  IC50: 256 nM
[1]
  CC50: 18100 nM

## c1ccc2c3c4c(nc2c1)c1ccccc1n4CCCN3CCCN1CCCCC1 [GSA-1202]
wild-type HSV-1 strain F
  SI (selectivity index, ratio of CC50 to IC50): 21.31
wild-type HSV-1 strain F; [12]
  IC50: 202 nM
[1]
  CC50: 4320 nM

## c1ccc2c3c4c(nc2c1)c1ccccc1n4CCCN3CCCN1CCOCC1 [GSA-0825]
wild-type HSV-1 strain F
  SI (selectivity index, ratio of CC50 to IC50): 91.64
wild-type HSV-1 strain F; [12]
  IC50: 357 nM
[1]
  CC50: 32700 nM

## CN(C)CCN1CCCn2c3ccccc3c3nc4ccccc4c1c32 [GSA-1502]
wild-type HSV-1 strain F
  SI (selectivity index, ratio of CC50 to IC50): 68.70
wild-type HSV-1 strain F; [12]
  IC50: 188 nM
[1]
  CC50: 12900 nM

From patent US12559499B2, “Uses of compounds having anti-HSV-1 activity” (Arizona Board of Regents on Behalf of the University of …, priority 2019, dated 2026)
